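In this assay, cells in 96-well plates receive the compound at five concentrations for 48 hours. Endpoints are linearly interpolated between the surrounding concentrations. Here, GI50 denotes the concentration required for 50% inhibition of growth.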 Activity calls are given as the source filed them. Cut-off read from the data, not from the text of the source: active = GI50 up to about 1.1 µM and inactive = higher.
Key:
Experiment in all cases: NCI anticancer screen, dose series, 48 h
HL-60 = test system: HL-60
SW-620 = test system: SW-620
DU-145 = test system: DU-145
EKVX = test system: EKVX
K562 = test system: K562
786-0 = test system: 786-0
UACC-257 = test system: UACC-257
MCF7 = test system: MCF7
IGROV-1 = test system: IGROV-1
T47D = test system: T47D
PC-3 = test system: PC-3
MOLT-4 = test system: MOLT-4
OVCAR-4 = test system: OVCAR-4
Malme-3M = test system: Malme-3M
UO-31 = test system: UO-31
NCI/ADR-RES = test system: NCI/ADR-RES
OVCAR-5 = test system: OVCAR-5
SF-539 = test system: SF-539
Hs-578T = test system: Hs-578T
NCI-H226 = test system: NCI-H226

SMILES: CCOC(=O)C1NCCc2c1[nH]c1ccccc21 (stereo not given)
- GI50 (HL-60): > 10 µM (inactive)
- GI50 (SW-620): > 10 µM (inactive)
- GI50 (DU-145): > 10 µM (inactive)
- GI50 (EKVX): > 10 µM (inactive)
- GI50 (K562): > 10 µM (inactive)
- GI50 (786-0): > 10 µM (inactive)
- GI50 (UACC-257): > 10 µM (inactive)
- GI50 (MCF7): > 10 µM (inactive)
- GI50 (IGROV-1): > 10 µM (inactive)
- GI50 (T47D): > 10 µM (inactive)
- GI50 (PC-3): > 10 µM (inactive)
- GI50 (MOLT-4): > 10 µM (inactive)
- GI50 (OVCAR-4): > 10 µM (inactive)
- GI50 (Malme-3M): > 10 µM (inactive)

SMILES: COC(=O)[C@H](NC(=O)OC(C)(C)C)[C@H]1COC(C)(C)O1
- GI50 (HL-60): > 100 µM (inactive)
- GI50 (SW-620): > 100 µM (inactive)
- GI50 (DU-145): > 100 µM (inactive)
- GI50 (EKVX): > 100 µM (inactive)
- GI50 (K562): > 100 µM (inactive)
- GI50 (786-0): > 100 µM (inactive)
- GI50 (UACC-257): > 100 µM (inactive)
- GI50 (MCF7): > 100 µM (inactive)
- GI50 (IGROV-1): > 100 µM (inactive)
- GI50 (UO-31): > 100 µM (inactive)
- GI50 (PC-3): > 100 µM (inactive)
- GI50 (MOLT-4): > 100 µM (inactive)
- GI50 (OVCAR-4): > 100 µM (inactive)
- GI50 (Malme-3M): 40.1 µM (inactive)
- GI50 (NCI/ADR-RES): > 100 µM (inactive)
- GI50 (OVCAR-5): > 100 µM (inactive)
- GI50 (SF-539): > 100 µM (inactive)

SMILES: COc1cccc(C[C@H]2COC(=O)[C@]2(O)Cc2cccc(OC)c2)c1
- GI50 (HL-60): 72.6 µM (inactive)
- GI50 (Hs-578T): > 100 µM (inactive)
- GI50 (SW-620): > 100 µM (inactive)
- GI50 (DU-145): > 100 µM (inactive)
- GI50 (EKVX): 26.5 µM (inactive)
- GI50 (NCI-H226): > 100 µM (inactive)
- GI50 (K562): > 100 µM (inactive)
- GI50 (786-0): > 100 µM (inactive)
- GI50 (UACC-257): > 100 µM (inactive)
- GI50 (IGROV-1): > 100 µM (inactive)
- GI50 (UO-31): > 100 µM (inactive)
- GI50 (T47D): 18.1 µM (inactive)
- GI50 (PC-3): > 100 µM (inactive)
- GI50 (MOLT-4): 53.1 µM (inactive)
- GI50 (OVCAR-4): 90.4 µM (inactive)
- GI50 (Malme-3M): 60.5 µM (inactive)
- GI50 (NCI/ADR-RES): 66.5 µM (inactive)
- GI50 (OVCAR-5): > 100 µM (inactive)
- GI50 (SF-539): > 100 µM (inactive)

SMILES: CC(=O)OCC(=O)[C@@]12OC(C)(C)O[C@@H]1C[C@H]1[C@@H]3CC(C=O)=C4C=C(OCCCl)CC[C@]4(C)[C@@]3(F)[C@@H](O)C[C@@]12C [FORMOCORTAL]
- GI50 (HL-60): 15.9 µM (inactive)
- GI50 (SW-620): 39 µM (inactive)
- GI50 (EKVX): 10.3 µM (inactive)
- GI50 (NCI-H226): 17.3 µM (inactive)
- GI50 (K562): 4.74 µM (inactive)
- GI50 (786-0): 16.1 µM (inactive)
- GI50 (UACC-257): 23.4 µM (inactive)
- GI50 (IGROV-1): 32.7 µM (inactive)
- GI50 (UO-31): 32.2 µM (inactive)
- GI50 (MOLT-4): 5.87 µM (inactive)
- GI50 (OVCAR-4): 19.9 µM (inactive)
- GI50 (Malme-3M): 23.6 µM (inactive)
- GI50 (OVCAR-5): 14.3 µM (inactive)
- GI50 (SF-539): 17.6 µM (inactive)

SMILES: O=C1CCCC2=C1CC1=C(CCCC1=O)N2c1ccc([N+](=O)[O-])cc1
- GI50 (HL-60): > 100 µM (inactive)
- GI50 (Hs-578T): > 100 µM (inactive)
- GI50 (SW-620): > 100 µM (inactive)
- GI50 (EKVX): > 100 µM (inactive)
- GI50 (NCI-H226): > 100 µM (inactive)
- GI50 (K562): > 100 µM (inactive)
- GI50 (786-0): > 100 µM (inactive)
- GI50 (MCF7): > 100 µM (inactive)
- GI50 (IGROV-1): > 100 µM (inactive)
- GI50 (UO-31): > 100 µM (inactive)
- GI50 (PC-3): > 100 µM (inactive)
- GI50 (MOLT-4): > 100 µM (inactive)
- GI50 (OVCAR-4): > 100 µM (inactive)
- GI50 (NCI/ADR-RES): > 100 µM (inactive)
- GI50 (OVCAR-5): > 100 µM (inactive)
- GI50 (SF-539): > 100 µM (inactive)

SMILES: COC1C=CC(C(=O)[N+]2=Cc3[nH]c4ccccc4c3CC2)O1 (stereo not given)
- GI50 (HL-60): 32.3 µM (inactive)
- GI50 (SW-620): > 100 µM (inactive)
- GI50 (EKVX): 88.5 µM (inactive)
- GI50 (NCI-H226): 80.9 µM (inactive)
- GI50 (K562): 37.2 µM (inactive)
- GI50 (786-0): > 100 µM (inactive)
- GI50 (UACC-257): > 100 µM (inactive)
- GI50 (IGROV-1): > 100 µM (inactive)
- GI50 (UO-31): > 100 µM (inactive)
- GI50 (MOLT-4): 34.9 µM (inactive)
- GI50 (OVCAR-4): > 100 µM (inactive)
- GI50 (Malme-3M): > 100 µM (inactive)
- GI50 (OVCAR-5): > 100 µM (inactive)
- GI50 (SF-539): > 100 µM (inactive)

SMILES: NNC(=O)/C(=C/c1cccc([N+](=O)[O-])c1)NC(=O)c1ccccc1
- GI50 (HL-60): > 100 µM (inactive)
- GI50 (SW-620): > 100 µM (inactive)
- GI50 (EKVX): < 0.01 µM (active)
- GI50 (NCI-H226): > 100 µM (inactive)
- GI50 (K562): > 100 µM (inactive)
- GI50 (786-0): > 100 µM (inactive)
- GI50 (UACC-257): > 100 µM (inactive)
- GI50 (IGROV-1): > 100 µM (inactive)
- GI50 (UO-31): > 100 µM (inactive)
- GI50 (MOLT-4): > 100 µM (inactive)
- GI50 (OVCAR-4): > 100 µM (inactive)
- GI50 (Malme-3M): > 100 µM (inactive)
- GI50 (OVCAR-5): 77.3 µM (inactive)
- GI50 (SF-539): > 100 µM (inactive)

SMILES: CC(=O)OCCOCn1c2ccccc2c2c3c(c4c5ccccc5n(COCCOC(C)=O)c4c21)C(=O)N(Cc1ccccc1)C3=O
- GI50 (HL-60): > 100 µM (inactive)
- GI50 (SW-620): > 100 µM (inactive)
- GI50 (EKVX): > 100 µM (inactive)
- GI50 (NCI-H226): > 100 µM (inactive)
- GI50 (K562): > 100 µM (inactive)
- GI50 (786-0): > 100 µM (inactive)
- GI50 (UACC-257): > 100 µM (inactive)
- GI50 (IGROV-1): > 100 µM (inactive)
- GI50 (UO-31): > 100 µM (inactive)
- GI50 (MOLT-4): > 100 µM (inactive)
- GI50 (OVCAR-4): > 100 µM (inactive)
- GI50 (Malme-3M): > 100 µM (inactive)
- GI50 (OVCAR-5): > 100 µM (inactive)
- GI50 (SF-539): > 100 µM (inactive)

SMILES: C[n+]1cc2cc(O)c(O)cc2c2ccc3cc(O)c(O)cc3c21.c1ccncc1
- GI50 (SW-620): 3.51 µM (inactive)
- GI50 (DU-145): 3.57 µM (inactive)
- GI50 (EKVX): 3.37 µM (inactive)
- GI50 (NCI-H226): 4.86 µM (inactive)
- GI50 (K562): 1.71 µM (inactive)
- GI50 (786-0): 2.03 µM (inactive)
- GI50 (UACC-257): 4.25 µM (inactive)
- GI50 (MCF7): 2.09 µM (inactive)
- GI50 (IGROV-1): 2.02 µM (inactive)
- GI50 (UO-31): 0.982 µM (active)
- GI50 (T47D): 5.86 µM (inactive)
- GI50 (PC-3): 3.37 µM (inactive)
- GI50 (MOLT-4): 0.912 µM (active)
- GI50 (OVCAR-4): 2.88 µM (inactive)
- GI50 (Malme-3M): 2.59 µM (inactive)
- GI50 (NCI/ADR-RES): 2.3 µM (inactive)
- GI50 (OVCAR-5): 6.24 µM (inactive)
- GI50 (SF-539): 2.62 µM (inactive)

Source: ChEMBL document CHEMBL1201862, “PubChem BioAssay data set” (2004)
